Here are results for 21 substances from US11925672B2, “Peptide having antioxidant activity and composition containing same” (SEMPIO FOODS COMPANY, priority 2018, dated 2024).

Entries after “also recorded” stand apart in the source; their conditions may differ. Numbered stars: 1 amine (or outer) side, 2 acyl side, 3 side chain; on linkers, the order of the positions; unused ones are H or OH. Square brackets hold non-standard residues; d marks the D form. Ends that are not written are not given here. γGlu = O=C(O)[C@H](CCC(=O)[*:2])N[*:1]; Orn = NCCC[C@H](N)C(=O)O; Abu = CC[C@H](N)C(=O)O

For one assay, the system named is Nrf2 mRNA. As to the kind of experiment: Nrf2 mRNA expression level by real-time PCR in Tert-BHP-treated HEK293 cells. The note with it: Tert-BHP 300 μM, peptide 500 μM, 18 hours; for effect on expression of Nrf2 mRNA: FIGS. 5A to 5C; for Nrf2 mRNA expression compared to positive control GSH: vs GSH. Format: cell-based. The method, then:
In the present invention, the antioxidant activity was compared between the 100 types of peptides, and the change in Nrf2 mRNA expression was measured through PCR in order to select the final peptide.
An HEK293 cell (kidney cell) line was seeded at a density of 6.6×10^5/well in DMEM (Dulbecco's Modified Eagle's Medium) medium on a 6-well plate and cultured at 37° C. under 5% CO2 for 24 hours. The next day, the medium was exchanged with serum and amino-acid-free media, and then the cells were further cultured for 20 hours or longer. The cells were treated with Tert-BHP (300 μM) and 500 μM 100 types of peptides, and then cultured for 18 hours.
RNA was extracted from the cells treated with 100 types of peptides in (1) using TRIzol (Thermo Fisher Scientific). A GoScript™ Reverse Transcription System (Promega, Wisconsin, USA) was used to synthesize cDNA from the RNA. The cDNA was synthesized by performing annealing using 1 μg of RNA, 0.5 μg of an oligo dt primer, 0.5 μg of a random primer and RT-PCR pre-mixture at 25° C. for 5 minutes, extension at 42° C. for 60 minutes, and inactivation at 70° C. for 15 minutes.
(§1) PCR was performed using Maxime™ PCR PreMix (i-StarTaq) (Intron Biotechnology, Korea). Real-time PCR was performed using SsoAdvanced™ Universal SYBR® Green Supermix (Bio-Rad, USA). 100 ng of cDNA, 2 μM (pmol/μl) primers, 10 μl of 2X SsoAdvanced™ Universal SYBR® Green Supermix and DW were added to the PCR plate well. Then, the temperature was cyclically adjusted to 95° C. for 3 minutes, 95° C. for 10 seconds and 58° C. for 40 seconds for a total of 40 cycles. A PCR reaction was performed using a CFX96 Touch™ Real-Time PCR Detection System (Bio-Rad, California, USA), and fluorescence intensity was measured at the end of each cycle.
A general note: Real-time PCR tracks product formation cycle by cycle.

Another assay deals with SOD2 mRNA. The assay can be described thus: SOD2 mRNA expression level by real-time PCR in Tert-BHP-treated HEK293 cells. The assay is classed as cell-based. Conditions: Tert-BHP 300 μM, peptide 500 μM, 18 hours; for effect on SOD2 mRNA expression: FIG. 6; for SOD2 mRNA expression compared to positive control GSH: vs GSH. The method, then: The expression of SOD2 mRNA as another antioxidant factor was determined. The cell line culture, RNA extraction, cDNA synthesis and PCR experiments were performed in the same manner as in Experimental Example 5 above. A detailed description thereof is given below.
An HEK293 cell (kidney cell) line was seeded at a density of 6.6×10^5/well in DMEM (Dulbecco's Modified Eagle's Medium) medium on a 6-well plate and cultured at 37° C. and 5% CO2 for 24 hours. The next day, the medium was exchanged with serum and amino-acid-free media, and then the cells were further cultured for 20 hours or longer. The cells were treated with Tert-BHP (300 μM) and 500 μM 100 types of peptides, and then cultured for 18 hours.
RNA was extracted from the cells treated with 100 types of peptides in (1) using TRIzol (Thermo Fisher Scientific). A GoScript™ Reverse Transcription System (Promega, Wisconsin, USA) was used to synthesize cDNA from the RNA. The cDNA was synthesized by performing annealing with 1 μg RNA, 0.5 μg of an oligo dt primer, 0.5 μg of a random primer, and RT-PCR pre-mixture at 25° C. for 5 minutes, extension at 42° C. for 60 minutes, and inactivation at 70° C. for 15 minutes.
as §1, with “using the” for “using a”

Regarding β-GLU-HIS, the “effect on expression of Nrf2 mRNA” value in the assay with Nrf2 mRNA is on record as “no effect”.
For the substance “γ-GLU-ALA-GLY (Glu-Ala-Gly; not fully specified (residue 1); printed as γ-GLU-ALA-GLY)”, in the assay with Nrf2 mRNA, the “effect on expression of Nrf2 mRNA” value was “improve the expression of Nrf2 mRNA”.
As to “γ-GLU-Abu-GLY ([γGlu]-[Abu]-Gly; also: γ-peptide bond from Glu side chain carboxyl to Abu)”, the “effect on expression of Nrf2 mRNA” value with Nrf2 mRNA is “improve the expression of Nrf2 mRNA”. Moreover, in the assay on SOD2 mRNA, the “effect on SOD2 mRNA expression” value is on record as “increased SOD2 mRNA expression” and the “SOD2 mRNA expression compared to positive control GSH” value is “remarkably excellent”.
“γ-GLU-CYS(S-Me)-GLY ([γGlu]-Cys(Me)-Gly)”: the “effect on expression of Nrf2 mRNA” value in the assay on Nrf2 mRNA is on record as “improve the expression of Nrf2 mRNA”.
On to γ-GLU-GLN-GLN ([γGlu]-Gln-Gln), for which, in the assay on Nrf2 mRNA, the “effect on expression of Nrf2 mRNA” value was “improve the expression of Nrf2 mRNA”. Besides, the “effect on SOD2 mRNA expression” value in the assay with SOD2 mRNA was “increased SOD2 mRNA expression”.
Take γ-GLU-GLU-GLU ([γGlu]-Glu-Glu): in the assay on Nrf2 mRNA, the “effect on expression of Nrf2 mRNA” value is recorded as “improve the expression of Nrf2 mRNA”.
With γ-GLU-ILE-GLY ([γGlu]-Ile-Gly), in the assay with Nrf2 mRNA, the “effect on expression of Nrf2 mRNA” value was “improve the expression of Nrf2 mRNA” and the “Nrf2 mRNA expression compared to positive control GSH” value was “remarkably excellent effect; also recorded: statistically significant activity”. In the assay with SOD2 mRNA, the “effect on SOD2 mRNA expression” value is given as “increased SOD2 mRNA expression” and the “SOD2 mRNA expression compared to positive control GSH” value is reported as “remarkably excellent; also recorded: statistically significant activity”.
As to γ-GLU-LEU-GLY ([γGlu]-Leu-Gly), in the assay on Nrf2 mRNA, the “effect on expression of Nrf2 mRNA” value was “improve the expression of Nrf2 mRNA”.
Regarding γ-GLU-ORN, in the assay with Nrf2 mRNA, the “effect on expression of Nrf2 mRNA” value is on record as “improve the expression of Nrf2 mRNA” and the “Nrf2 mRNA expression compared to positive control GSH” value is “comparable or superior”.
On to γ-GLU-PRO-GLY ([γGlu]-Pro-Gly), for which, in the assay on Nrf2 mRNA, the “effect on expression of Nrf2 mRNA” value was “improve the expression of Nrf2 mRNA” and the “Nrf2 mRNA expression compared to positive control GSH” value is given as “remarkably excellent effect; also recorded: statistically significant activity”. In addition, in the assay on SOD2 mRNA, the “effect on SOD2 mRNA expression” value was “increased SOD2 mRNA expression” and the “SOD2 mRNA expression compared to positive control GSH” value was “remarkably excellent; also recorded: statistically significant activity”.
Consider “γ-GLU-SER-GLY ([γGlu]-Ser-Gly; also: gamma-glutamyl isopeptide bond (Glu side chain to Ser))”, for which, in the assay on Nrf2 mRNA, the “effect on expression of Nrf2 mRNA” value was “improve the expression of Nrf2 mRNA” and the “Nrf2 mRNA expression compared to positive control GSH” value is “statistically significant activity”. The “SOD2 mRNA expression compared to positive control GSH” value in the assay on SOD2 mRNA is given as “remarkably excellent; also recorded: statistically significant activity”.
Consider “γ-GLU-VAL-ALA ([γGlu]-Val-Ala; also: gamma-glutamyl isopeptide bond (Glu side chain to Val))”, for which the “effect on expression of Nrf2 mRNA” value in the assay on Nrf2 mRNA is listed as “improve the expression of Nrf2 mRNA”. Also, in the assay with SOD2 mRNA, the “effect on SOD2 mRNA expression” value is recorded as “increased SOD2 mRNA expression”.
Take “γ-GLU-VAL-ARG ([γGlu]-Val-Arg; also: gamma-glutamyl isopeptide bond (Glu side chain to Val))”: in the assay with Nrf2 mRNA, the “effect on expression of Nrf2 mRNA” value is given as “improve the expression of Nrf2 mRNA” and the “Nrf2 mRNA expression compared to positive control GSH” value is “remarkably excellent effect; also recorded: statistically significant activity”. Further, in the assay on SOD2 mRNA, the “effect on SOD2 mRNA expression” value is “increased SOD2 mRNA expression” and the “SOD2 mRNA expression compared to positive control GSH” value is “remarkably excellent; also recorded: statistically significant activity”.
As to “γ-GLU-VAL-ASN ([γGlu]-Val-Asn; also: gamma-glutamyl isopeptide bond (Glu side chain to Val))”, in the assay on Nrf2 mRNA, the “effect on expression of Nrf2 mRNA” value is recorded as “improve the expression of Nrf2 mRNA” and the “Nrf2 mRNA expression compared to positive control GSH” value was “remarkably excellent effect; also recorded: statistically significant activity”. Moreover, in the assay with SOD2 mRNA, the “effect on SOD2 mRNA expression” value is on record as “increased SOD2 mRNA expression” and the “SOD2 mRNA expression compared to positive control GSH” value is recorded as “remarkably excellent; also recorded: statistically significant activity”.
Regarding “γ-GLU-VAL-ASP ([γGlu]-Val-Asp; also: gamma-glutamyl isopeptide bond (Glu side chain to Val))”, in the assay on Nrf2 mRNA, the “effect on expression of Nrf2 mRNA” value is listed as “improve the expression of Nrf2 mRNA” and the “Nrf2 mRNA expression compared to positive control GSH” value is “remarkably excellent effect; also recorded: statistically significant activity”. Also, in the assay with SOD2 mRNA, the “effect on SOD2 mRNA expression” value is listed as “increased SOD2 mRNA expression” and the “SOD2 mRNA expression compared to positive control GSH” value is recorded as “remarkably excellent; also recorded: statistically significant activity”.
The corresponding values for “γ-GLU-VAL-GLU ([γGlu]-Val-Glu; also: gamma-glutamyl isopeptide bond (Glu side chain to Val))” are “improve the expression of Nrf2 mRNA”, “remarkably excellent effect; also recorded: statistically significant activity”, “increased SOD2 mRNA expression” and “remarkably excellent; also recorded: statistically significant activity”.
Regarding “γ-GLU-VAL-GLY ([γGlu]-Val-Gly; also: gamma-glutamyl isopeptide bond (Glu side chain to Val))”, in the assay with Nrf2 mRNA, the “effect on expression of Nrf2 mRNA” value is “improve the expression of Nrf2 mRNA”. Besides, in the assay on SOD2 mRNA, the “effect on SOD2 mRNA expression” value is listed as “increased SOD2 mRNA expression” and the “SOD2 mRNA expression compared to positive control GSH” value is recorded as “remarkably excellent”.
For “γ-GLU-VAL-HIS ([γGlu]-Val-His; also: gamma-glutamyl isopeptide bond (Glu side chain to Val))” the same measures were “improve the expression of Nrf2 mRNA”, “increased SOD2 mRNA expression” and “remarkably excellent”.
Consider “γ-GLU-VAL-LYS ([γGlu]-Val-Lys; also: gamma-glutamyl isopeptide bond (Glu side chain to Val))”, for which the “effect on expression of Nrf2 mRNA” value with Nrf2 mRNA was “improve the expression of Nrf2 mRNA”. In the assay on SOD2 mRNA, the “effect on SOD2 mRNA expression” value is on record as “increased SOD2 mRNA expression”.
With “γ-GLU-VAL-MET ([γGlu]-Val-Met; also: gamma-glutamyl isopeptide bond (Glu side chain to Val))”, in the assay with Nrf2 mRNA, the “effect on expression of Nrf2 mRNA” value is “improve the expression of Nrf2 mRNA” and the “Nrf2 mRNA expression compared to positive control GSH” value is recorded as “remarkably excellent effect; also recorded: statistically significant activity”. In addition, in the assay with SOD2 mRNA, the “effect on SOD2 mRNA expression” value is “increased SOD2 mRNA expression” and the “SOD2 mRNA expression compared to positive control GSH” value is listed as “remarkably excellent; also recorded: statistically significant activity”.
Consider “γ-GLU-VAL-ORN ([γGlu]-Val-[Orn]; also: γ-peptide bond from Glu side chain carboxyl to Val)”, for which the “effect on expression of Nrf2 mRNA” value with Nrf2 mRNA is recorded as “improve the expression of Nrf2 mRNA”. Also, the “effect on SOD2 mRNA expression” value in the assay on SOD2 mRNA is recorded as “increased SOD2 mRNA expression”.
